Experiments:
MDA-MB cells = experiment: Apoptosis by flow cytometry (FACS) in perfusion bellows culture; format: cell-based, human; conditions: for induced apoptosis compared to untreated control: day 2
Protocol: MDA-MB cells grown in perfusion bellows cell culture were treated with different concentrations of tetrac (10^−7 M to 10^−5 M) daily. Cells were harvested on the day indicated. Two million cells of each sample were prepared for flow cytometry. Flow cytometry was conducted as described in Example 1, infra.
Cells were harvested from flakes by trypsinization, washed with PBS and were resuspended in 200 μL PBS (1×10^5-1×10^6 cells). To quantify cellular DNA content, cells were permeabilized by fixation with 70% ethanol for 30 min at 4° C. Samples can be stored in 70% ethanol at −20° C. for several weeks prior to propidium iodide (PI) staining and flow cytometric analysis. If cellular DNA quantification was performed on the same day of cell harvest, the cells were washed after permeabilization in PBS and resuspended in 500 μL PBS. Then 2.5 μL RNase (DNase-free) was added to the cell suspension and incubation was carried out at 37° C. for 30 min. The cell suspension was chilled on ice to 4° C. and 50 μL propidium iodide (PI) was added to the cell suspension. Samples were then kept in the dark at room temperature for 30 min, after which they were subjected to flow cytometry. Samples were analyzed on FACSCalibur™ (Becton Dickinson), using CellQuest software to determine DNA content. Fluorescence-activated cell sorting (FACS) analysis was performed using Annexin V-FITC and PI. The relative percentages of cells in G1, S, or G2/M phase were calculated from FL-2 histograms using ModFit LT software.
Cells were harvested for FACS analysis 1-5 d after treatment with 10^−7 to 10^−5 M tetrac. […] (See FIG. 7). By day 2, tetrac, 10^−7M and 10^−6M, induced apoptosis by 2.5-fold as compared to untreated control. Similar results were obtained after 4 d of treatment of tetrac. […] (See FIG. 7).

[1] = tested on: human embryonic kidney 293T cells; experiment: Proliferation of non-malignant cells; format: cell-based; conditions: 10^−6M daily for 7 days
Protocol: FIG. 9 is a series of graphs showing the comparison of nano-tetrac and tetrac on cell proliferation in non-malignant cells. CV-1 cells (FIG. 9A) and 293 T cells (FIG. 9B) were treated daily with 10^−6 M tetrac or nano-tetrac. Cells were harvested at the time points indicated. Total cell numbers taken after each treatment were used as an indicator for tetrac- or nano-tetrac-induced anti-proliferation.
In order to confirm that tetrac and nano-tetrac only suppress cell proliferation in cancer cells, tetrac and nano-tetrac were also examined for potential anti-proliferative effects on immortalized non-malignant cells, using monkey kidney epithelial CV-1 cells and human embryonic kidney 293T cells. The cells were treated daily with either 10^−6M tetrac or 10^−6M nano-tetrac for 7 days, then were harvested, counted and examined microscopically.

[2] = Turnover rate (stability) of tetrac in the culture system; format: physicochemical
Protocol: In LC/MS/MS experiments, medium samples (20 μL) were injected onto an HP 1100 series HPLC system (Agilent Technologies, Palo Alto, Calif., USA), equipped with a narrow-bore column Zorbax Eclipse XDB-C18 (5 μm, 150×2.1 mm; Agilent). Separation was performed using a mobile phase of 0.1% (v/v) acetic acid (A) and 100% acetonitrile (B), with a linear gradient of 20-60% B over 25 min. Flow rate was maintained at 0.2 mL min^−1 and elution was monitored by a diode array detector (200-600 nm). The LC effluent was then introduced into a turbo ion-spray source on a Q/STAR-XL quadruple/time-of-flight (TOF) hybrid mass spectrometer (Applied Biosystems, Foster City, Calif., USA). Negative ESI mass spectra were acquired over the range from m/z 100 to 400. The electrospray voltage was set at −4.5 kV and the source temperature was maintained at 475° C. […]
Human glioblastoma U87MG cells were treated with different concentrations of tetrac (10^−9-10^−5M) for 7 d and tetrac was replenished daily. The turnover rate of tetrac in the culture system was measured. Tetrac detected was 75% of the original concentration after 24 h incubation in medium with 10% FBS in the absence of cells at both room temperature and 37° C. […]

- Tetrac detected, % of the original concentration ([2]; 24 h incubation in medium with 10% FBS, absence of cells, room temperature and 37° C.): 75%
- tetrac decay ([2]; incubated with cell cultures at 37° C.): 12%
SMILES: O=C(O)Cc1cc(I)c(Oc2cc(I)c(O)c(I)c2)c(I)c1 [tetrac, Tetraiodothyroacetic acid]
- increase of apoptotic cells compared to untreated control cells (MDA-MB cells; 10^−5 M, 1 d): 10 fold
- induced apoptosis compared to untreated control (MDA-MB cells; 10^−6M): 2.5 fold
- induced apoptosis compared to untreated control (MDA-MB cells; 10^−7M): 2.5 fold
- change in cell numbers and morphology vs untreated control [1]: no significant change

Reference: patent US9180107B2 (NANOPHARMACEUTICALS LLC, priority 2009, dated 2015)
